Test results reported in ChEMBL document CHEMBL1201862, “PubChem BioAssay data set” (2004).
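48-hour exposure; five concentrations; linearly interpolated endpoints. GI50 marks 50% less growth.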 The source made the active and inactive calls. No stated cut-off is given here; in the data, active = GI50 up to about 1.1 µM and inactive = higher.

How the values were obtained:
Assay in all cases: DTP human tumour cell line panel, 48 h
786-0 = tested on: 786-0
A549 = tested on: A549
ACHN = tested on: ACHN
CCRF-CEM = tested on: CCRF-CEM
DLD-1 = tested on: DLD-1
EKVX = tested on: EKVX
HCC 2998 = tested on: HCC 2998
HCT-116 = tested on: HCT-116
HCT-15 = tested on: HCT-15
HL-60 = tested on: HL-60
HOP-18 = tested on: HOP-18
HOP-62 = tested on: HOP-62
HOP-92 = tested on: HOP-92
HT-29 = tested on: HT-29
IGROV-1 = tested on: IGROV-1
K562 = tested on: K562
KM-20L2 = tested on: KM-20L2
KM12 = tested on: KM12
LOX IMVI = tested on: LOX IMVI
LXFL 529 = tested on: LXFL 529
M14 = tested on: M14
M19-MEL = tested on: M19-MEL
MOLT-4 = tested on: MOLT-4
Malme-3M = tested on: Malme-3M
NCI-H23 = tested on: NCI-H23
NCI-H460 = tested on: NCI-H460
NCI-H522 = tested on: NCI-H522
OVCAR-3 = tested on: OVCAR-3
OVCAR-4 = tested on: OVCAR-4
OVCAR-5 = tested on: OVCAR-5
OVCAR-8 = tested on: OVCAR-8
RXF 393 = tested on: RXF 393
SF-295 = tested on: SF-295
SF-539 = tested on: SF-539
SK-MEL-28 = tested on: SK-MEL-28
SK-MEL-2 = tested on: SK-MEL-2
SK-MEL-5 = tested on: SK-MEL-5
SK-OV-3 = tested on: SK-OV-3
SN12C = tested on: SN12C
SNB-75 = tested on: SNB-75
SR = tested on: SR
SW-620 = tested on: SW-620
TK-10 = tested on: TK-10
U-251 = tested on: U-251
UACC-257 = tested on: UACC-257
UACC-62 = tested on: UACC-62
UO-31 = tested on: UO-31
XF498 = tested on: XF498

SMILES: O=[N+]([O-])C1(CO)COC(CCc2ccccc2)OC1 (stereo not drawn)
- GI50 (786-0): > 100 µM (inactive)
- GI50 (A549): > 100 µM (inactive)
- GI50 (ACHN): > 100 µM (inactive)
- GI50 (CCRF-CEM): > 100 µM (inactive)
- GI50 (DLD-1): > 100 µM (inactive)
- GI50 (EKVX): > 100 µM (inactive)
- GI50 (HCC 2998): > 100 µM (inactive)
- GI50 (HCT-116): > 100 µM (inactive)
- GI50 (HCT-15): > 100 µM
- GI50 (HL-60): > 100 µM (inactive)
- GI50 (HOP-18): > 100 µM (inactive)
- GI50 (HOP-62): > 100 µM (inactive)
- GI50 (HOP-92): 7.13 µM (inactive)
- GI50 (HT-29): > 100 µM (inactive)
- GI50 (IGROV-1): > 100 µM (inactive)
- GI50 (K562): > 100 µM (inactive)
- GI50 (KM-20L2): > 100 µM (inactive)
- GI50 (KM12): > 100 µM (inactive)
- GI50 (LOX IMVI): > 100 µM (inactive)
- GI50 (LXFL 529): > 100 µM (inactive)
- GI50 (M14): > 100 µM (inactive)
- GI50 (M19-MEL): > 100 µM (inactive)
- GI50 (MOLT-4): > 100 µM (inactive)
- GI50 (Malme-3M): > 100 µM (inactive)
- GI50 (NCI-H23): > 100 µM (inactive)
- GI50 (NCI-H460): > 100 µM (inactive)
- GI50 (NCI-H522): > 100 µM (inactive)
- GI50 (OVCAR-3): > 100 µM (inactive)
- GI50 (OVCAR-4): > 100 µM (inactive)
- GI50 (OVCAR-5): > 100 µM (inactive)
- GI50 (OVCAR-8): > 100 µM (inactive)
- GI50 (RXF 393): > 100 µM (inactive)
- GI50 (SF-295): > 100 µM (inactive)
- GI50 (SF-539): > 100 µM (inactive)
- GI50 (SK-MEL-28): > 100 µM (inactive)
- GI50 (SK-MEL-2): > 100 µM (inactive)
- GI50 (SK-MEL-5): > 100 µM (inactive)
- GI50 (SK-OV-3): > 100 µM (inactive)
- GI50 (SN12C): > 100 µM (inactive)
- GI50 (SNB-75): > 100 µM (inactive)
- GI50 (SR): > 100 µM (inactive)
- GI50 (SW-620): > 100 µM (inactive)
- GI50 (TK-10): > 100 µM (inactive)
- GI50 (U-251): > 100 µM (inactive)
- GI50 (UACC-257): > 100 µM (inactive)
- GI50 (UACC-62): > 100 µM (inactive)
- GI50 (UO-31): > 100 µM (inactive)
- GI50 (XF498): > 100 µM (inactive)
